Measurements: ChEMBL document CHEMBL4725251, “Structure-activity relationships of tubulysin analogues” (Bioorg Med Chem Lett, 2020)

Experiments:
Tubulin (Homo sapiens) = Tubulin (Homo sapiens) (UniProt P68371+Q9H4B7+P0DPH7+P68366+Q13509+Q71U36+P04350+Q3ZCM7+P07437+P68363+Q9BQE3+Q6PEY2+Q13885+Q9BVA1+Q9BUF5); experiment: Binding affinity to tubulin (unknown origin) by fluorescence polarization displacement assay; assay type: protein-complex assay
[1] = Antiproliferative against human DEL/BVR cells incubated for 96 hrs by cellTiter-Glo assay; assay type: functional, cell-based
L-540 = experiment: Antiproliferative against human L540cy cells incubated for 96 hrs by cellTiter-Glo assay; assay type: functional, cell-based; conditions: L-540, 96 h
DEL = experiment: Antiproliferative against human DEL cells incubated for 96 hrs by cellTiter-Glo assay; assay type: functional, cell-based
L-428 = experiment: Antiproliferative against human L428 cells incubated for 96 hrs by cellTiter-Glo assay; assay type: functional, cell-based; conditions: L-428, 96 h

| SMILES | relative binding affinity (RBA) (Tubulin (Homo sapiens)) | EC50 [1] [nM] | EC50 (L-540) [nM] | EC50 (DEL) [nM] | EC50 (L-428) [nM] |
| --- | --- | --- | --- | --- | --- |
| CCO[C@H](C[C@H](C(C)C)N(C)C(=O)[C@H](C)NC(=O)[C@H]1CCCCN1C)c1nc(C(=O)N[C@@H](Cc2ccccc2)C[C@H](C)C(=O)O)cs1 | 0.03 | 420 | 110 | 21 | – |
| CCO[C@H](C[C@H](C(C)C)N(C)C(=O)[C@@H](NC(=O)[C@H]1CCCCN1C)C1CCCCC1)c1nc(C(=O)N[C@@H](Cc2ccccc2)C[C@H](C)C(=O)O)cs1 | 0.4 | 6 | 1 | 0.2 | – |
| CCO[C@H](C[C@H](C(C)C)N(C)C(=O)[C@@H](NC(=O)[C@@]1(C)CCCN1C)[C@@H](C)CC)c1nc(C(=O)N[C@@H](Cc2ccccc2)C[C@H](C)C(=O)O)cs1 | 0.38 | 2 | 1 | 0.3 | – |
| CCO[C@H](C[C@H](C(C)C)N(C)C(=O)[C@@H](NC(=O)[C@H]1CCCCN1C)[C@@H](C)OC)c1nc(C(=O)N[C@@H](Cc2ccccc2)C[C@H](C)C(=O)O)cs1 | 0.03 | 66 | 6 | 1 | – |
| CC[C@H](C)[C@H](NC(=O)[C@H]1CCCCN1C)C(=O)N(C)[C@H](C[C@@H](OC)c1nc(C(=O)N[C@@H](Cc2ccccc2)C[C@H](C)C(=O)O)cs1)C(C)C | 0.42 | – | 0.12 | – | 0.48 |
| CCO[C@H](C[C@H](C(C)C)N(C)C(=O)[C@@H](NC(=O)[C@H]1CCCCN1C)[C@H](C)OC(C)(C)C)c1nc(C(=O)N[C@@H](Cc2ccccc2)C[C@H](C)C(=O)O)cs1 | 0.06 | 123 | 81 | 17 | – |
| CCO[C@H](C[C@H](C(C)C)N(C)C(=O)[C@@H](NC(=O)[C@H]1CCCCN1C)C1CCC1)c1nc(C(=O)N[C@@H](Cc2ccccc2)C[C@H](C)C(=O)O)cs1 | 0.03 | 89 | 24 | 13 | – |
| CCO[C@H](C[C@H](C(C)C)N(C)C(=O)CNC(=O)[C@H]1CCCCN1C)c1nc(C(=O)N[C@@H](Cc2ccccc2)C[C@H](C)C(=O)O)cs1 | – | 9600 | 4600 | 3300 | – |
| CC[C@H](C)[C@H](NC(=O)[C@H]1CCCCN1C)C(=O)N(C)[C@H](C[C@@H](OC(=O)C(C)C)c1nc(C(=O)N[C@@H](Cc2ccccc2)C[C@H](C)C(=O)O)cs1)C(C)C | 0.36 | – | 0.1 | – | 0.12 |
| CCO[C@H](C[C@H](C(C)C)N(C)C(=O)[C@@H](NC(=O)C1CCC(F)(F)CN1C)[C@@H](C)CC)c1nc(C(=O)N[C@@H](Cc2ccccc2)C[C@H](C)C(=O)O)cs1 (mixture of isomers) | 0.07 | 66 | 15 | 9 | – |
| CCO[C@H](C[C@H](C(C)C)N(C)C(=O)[C@@H](NC(=O)C12CC(CCN1C)C2)[C@@H](C)CC)c1nc(C(=O)N[C@@H](Cc2ccccc2)C[C@H](C)C(=O)O)cs1 | 0.23 | 2 | 1 | 0.2 | – |
| CCO[C@H](C[C@H](C(C)C)N(C)C(=O)[C@@H](NC(=O)[C@H]1CCCCN1C)[C@@H](C)CC)c1nc(C(=O)N[C@@H](Cc2ccccc2)C[C@H](C)C(=O)O)cs1 | 0.27 | 1 | 0.4 | 0.04 | 0.13 |
| CC[C@H](C)[C@H](NC(=O)[C@H]1CCCCN1C)C(=O)N(C)[C@H](C[C@@H](OC(C)=O)c1nc(C(=O)N[C@@H](Cc2ccccc2)C[C@H](C)C(=O)O)cs1)C(C)C | – | – | 0.08 | – | 0.04 |
| CCO[C@H](C[C@H](C(C)C)N(C)C(=O)[C@@H](NC(=O)[C@H]1CCCCN1C)[C@H](C)OC)c1nc(C(=O)N[C@@H](Cc2ccccc2)C[C@H](C)C(=O)O)cs1 | 0.001 | 17 | 5 | 1 | – |
| C#CCO[C@H](C[C@H](C(C)C)N(C)C(=O)[C@@H](NC(=O)[C@H]1CCCCN1C)[C@@H](C)CC)c1nc(C(=O)N[C@@H](Cc2ccccc2)C[C@H](C)C(=O)O)cs1 | 0.59 | – | 0.17 | – | 0.41 |
| CCO[C@H](C[C@H](C(C)C)N(C)C(=O)[C@@H](NC(=O)[C@H]1CCCCN1C)[C@@H](C)OC(C)(C)C)c1nc(C(=O)N[C@@H](Cc2ccccc2)C[C@H](C)C(=O)O)cs1 | 0.83 | 0.4 | 0.1 | 0.1 | – |
| CCO[C@H](C[C@H](C(C)C)N(C)C(=O)[C@@H](NC(=O)[C@H]1[C@@H]2CC[C@@H](C2)N1C)[C@@H](C)CC)c1nc(C(=O)N[C@@H](Cc2ccccc2)C[C@H](C)C(=O)O)cs1 | 0.08 | 15 | 8 | 2 | – |
| C=CCO[C@H](C[C@H](C(C)C)N(C)C(=O)[C@@H](NC(=O)[C@H]1CCCCN1C)[C@@H](C)CC)c1nc(C(=O)N[C@@H](Cc2ccccc2)C[C@H](C)C(=O)O)cs1 | 0.88 | – | 0.12 | – | 0.15 |
| CCO[C@H](C[C@H](C(C)C)N(C)C(=O)[C@@H](NC(=O)[C@H]1CCCCN1C)[C@H](C)CC)c1nc(C(=O)N[C@@H](Cc2ccccc2)C[C@H](C)C(=O)O)cs1 | 0.007 | 61 | 13 | 3 | – |
| CC[C@H](C)[C@H](NC(=O)[C@H]1CCCCN1C)C(=O)N(C)[C@H](C[C@@H](OCc1ccccc1)c1nc(C(=O)N[C@@H](Cc2ccccc2)C[C@H](C)C(=O)O)cs1)C(C)C | 0.07 | – | 0.4 | – | 0.57 |
| CC[C@H](C)[C@H](NC(=O)[C@H]1CCCCN1C)C(=O)N(C)[C@H](C[C@@H](OCC(C)=O)c1nc(C(=O)N[C@@H](Cc2ccccc2)C[C@H](C)C(=O)O)cs1)C(C)C | 0.27 | – | 0.6 | – | 1 |
| C=C(C)CO[C@H](C[C@H](C(C)C)N(C)C(=O)[C@@H](NC(=O)[C@H]1CCCCN1C)[C@@H](C)CC)c1nc(C(=O)N[C@@H](Cc2ccccc2)C[C@H](C)C(=O)O)cs1 | 0.43 | – | 0.06 | – | 0.12 |
| CC[C@H](C)[C@H](NC(=O)[C@H]1CCCCN1C)C(=O)N(C)[C@H](C[C@@H](OC(=O)CC(C)C)c1nc(C(=O)N[C@@H](Cc2ccccc2)C[C@H](C)C(=O)O)cs1)C(C)C | 0.26 | – | 0.06 | – | 0.11 |
| CCCO[C@H](C[C@H](C(C)C)N(C)C(=O)[C@@H](NC(=O)[C@H]1CCCCN1C)[C@@H](C)CC)c1nc(C(=O)N[C@@H](Cc2ccccc2)C[C@H](C)C(=O)O)cs1 | 0.68 | – | 0.13 | – | 0.39 |
| CCO[C@H](C[C@H](C(C)C)N(C)C(=O)[C@@H](NC(=O)[C@H]1CCCCN1C)C1CCCC1)c1nc(C(=O)N[C@@H](Cc2ccccc2)C[C@H](C)C(=O)O)cs1 | 0.45 | 1 | 0.2 | 0.1 | – |
| CCO[C@H](C[C@H](C(C)C)N(C)C(=O)[C@@H](NC(=O)C1CN(C)CCN1C)[C@@H](C)CC)c1nc(C(=O)N[C@@H](Cc2ccccc2)C[C@H](C)C(=O)O)cs1 (mixture of isomers) | – | – | > 1000 | – | – |
| CCO[C@H](C[C@H](C(C)C)N(C)C(=O)[C@@H](NC(=O)[C@H]1CCCCN1C)C(CC)CC)c1nc(C(=O)N[C@@H](Cc2ccccc2)C[C@H](C)C(=O)O)cs1 | 0.2 | 4 | 1 | 0.4 | – |
| CCC(=O)O[C@H](C[C@H](C(C)C)N(C)C(=O)[C@@H](NC(=O)[C@H]1CCCCN1C)[C@@H](C)CC)c1nc(C(=O)N[C@@H](Cc2ccccc2)C[C@H](C)C(=O)O)cs1 | 0.97 | – | 0.06 | – | 0.04 |
| CCCC(=O)O[C@H](C[C@H](C(C)C)N(C)C(=O)[C@@H](NC(=O)[C@H]1CCCCN1C)[C@@H](C)CC)c1nc(C(=O)N[C@@H](Cc2ccccc2)C[C@H](C)C(=O)O)cs1 | 0.52 | – | 0.04 | – | 0.05 |
